For 19 compounds, IC50 and EC50 results are on record in patent US10961234B2, “Oxazole derivatives for use in the treatment of cancer” (LIFEARC, priority 2016, dated 2021).

Some results are limits rather than exact numbers.

As a reminder, the IC50 is the concentration that gives 50% inhibition. The term EC50 denotes the concentration that produces a half-maximal response. Low readings indicate an effect from little substance, high ones a need for much substance.

The target in one test is T1, WT full length PAICS (Homo sapiens, UniProt P22234).
T1 construct: 5 μl WT full length PAICS (final assay concentration, fac, 2.5 nM) in basic buffer
T1 sequence (P22234 1-425): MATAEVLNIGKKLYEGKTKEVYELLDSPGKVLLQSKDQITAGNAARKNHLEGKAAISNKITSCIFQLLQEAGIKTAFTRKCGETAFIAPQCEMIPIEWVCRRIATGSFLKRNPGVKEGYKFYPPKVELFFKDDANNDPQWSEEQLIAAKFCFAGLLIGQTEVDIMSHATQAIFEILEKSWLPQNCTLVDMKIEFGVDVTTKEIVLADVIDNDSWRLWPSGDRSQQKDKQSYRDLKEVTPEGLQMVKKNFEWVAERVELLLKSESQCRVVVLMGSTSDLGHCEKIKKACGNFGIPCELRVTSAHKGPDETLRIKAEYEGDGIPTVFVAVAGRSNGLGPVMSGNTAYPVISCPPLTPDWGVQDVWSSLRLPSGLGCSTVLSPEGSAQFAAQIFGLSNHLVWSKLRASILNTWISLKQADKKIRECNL
Nature of the test: Biochemical assay to measure PAICS activity (Transcreener ADP2 FI, SAICAR synthetase reaction). The conditions noted are these: PAICS 2.5 nM, 30 mins pre-incubation, ADP detection by fluorescence intensity. An excerpt: The biochemical assay was used to measure PAICS SAICAR synthetase-mediated conversion of CAIR, aspartic acid and ATP to SAICAR, ADP and inorganic phosphate (PI), post-AIR/CAIR equilibration (see FIG. 3). This was achieved by detecting the ADP generated during the reaction, using Bellbrook Lab's Transcreener ADP^2 FI assay. An increase in the fluorescence intensity is directly proportional to the amount of PAICS activity.
The Transcreener ADP^2 FI assay is a homogeneous competitive displacement fluorescence intensity assay which uses direct immunodetection of ADP. Displacement of the tracer by ADP causes an increase in the fluorescence at excitation 590 nm and emission 617 nm (FIG. 3).
5 μl WT full length PAICS (final assay concentration, fac, 2.5 nM) in basic buffer, added to black, non-binding, 384-well plates (Corning #3575), columns 1 to 22.5 μl basic buffer was added to columns 23+24 (negative control). PAICS stock at 31.9 μM from the PI's lab (Steve Firestine). Basic buffer contained 50 mM Tris-HCl pH8 and 0.5 mM EDTA, fac.
1 μl compound in 100% DMSO added per well, or 1 μl 100% DMSO to positive controls (columns 1+2) and negative controls (columns 23+24). Final assay top concentration of compound either 1 mM or 30 μM, serially diluted with half-log dilutions across the plate in duplicate (one 10-point concentration response curve across wells 3 to 12, another across 13 to 22). Compounds pre-incubated with PAICS enzyme for 30 mins at RT.
2 μl CAIR added (fac 10 μM) in basic buffer plus 25 mM MgCl2 and 50 mM KHCO3 fac to all wells. CAIR stock 50 mM from Steve Firestine's lab. 1 hr RT incubation for AIR-CAIR equilibration. NB: ˜50% CAIR is decarboxylated during equilibration therefore 5 μM remains for the synthetase reaction.
2 μl ATP/aspartic acid added (fac 30 μM/180 μM) in reaction buffer to all wells. 30 mins RT incubation for appropriate level of ATP turnover. Reaction buffer contained basic buffer plus 10 mM DTT, 0.01% BSA and 0.01% Brij 35, fac.
10 μl ADP detection reagent added to all wells (as per instructions, Transcreener ADP^2 FI kit, BellBrook Labs #3013-10K). Incubation for 1 h at RT to allow antibody equilibration. Fluorescence intensity determined using a Tecan Safire2 (excitation at 590 nm, emission at 617 nm).

Test [1] concerns LM2 and MDA-MB-231 breast cancer cell lines. In words: PAICS 2D cell proliferation assay. It is filed as cell-based. The conditions noted are these: Homo sapiens; 72 hours incubation; cell line (LM2 or MDA-MB-231) not given. As for the experimental part: Frozen cryovial stocks of LM2 and MDA-MB-231 breast cancer cell lines were thawed and cultured in 4.5 g/L glucose DMEM (31966-047, Invitrogen) supplemented with 10% Fetal Bovine Serum (10500-064, Invitrogen) until confluent in a T175 flask. Cells were incubated at 37° C. with 5% CO2 in a humidified incubator.
Cells were collected from T175 flasks by washing with PBS (10010-056, Invitrogen) and dissociated using Accutase (A6964, Sigma Aldrich). This was followed by centrifuging (1200 rpm, 5 min) and resuspending the cells in 10 ml of media containing 1% penicillin/streptomycin (15140-122, Invitrogen). Cells were counted by trypan blue exclusion method using an automated cell counter (Cellometer) and diluted to a concentration of 40,000/ml. 1000 cells were then seeded into 384-well white-walled plates (Corning, 3707) in a volume of 25 μl. Plates were incubated overnight at 37° C. with 5% CO2.
After 24 hours, PAICS compounds were added onto the assay plates using an HP D300 Digital Dispenser (Hewlett Packard). 10 mM stocks were used and dispensed as a 10 point concentration response curve (CRC) ½ log dilution series with a final top concentration of 100 μM. Controls were added onto each plate: positive controls included Staurosporine CRC (100 μM stock dispensed as a 10 point CRC ½ log dilution series with a final top concentration of 1 μM) and PAICS compound MRT00211919 (10 mM stock dispensed as a 10 point CRC ½ log dilution series with a final top concentration of 100 μM); a high control of Staurosporine (0.1 μM (LM2), 0.316 μM (MDA-MB-231) FAC) and a low control of media containing 1% DMSO. A final concentration of 1% DMSO was then added across the plates for normalisation. Following compound addition, assay plates were incubated for 72 hours at 37° C. with 5% CO2.
After 72 h incubation, dead and viable cells were measured in each assay plate. Cytotoxicity was assessed through fluorescent DNA staining using the CellTox™ Green Cytotoxicity Assay kit (G8743, Promega) following the manufacturer's multiplexing protocol. Impaired cell membrane integrity results in the access of dye to stain DNA allowing quantification of dead cells. Cell viability was determined following ATP quantification using the CellTiter-Glo® Luminescent Cell Viability Assay kit (G7572, Promega) following the manufacturer's protocol. ATP released from lysed cells allowed for the generation of a signal proportional to the number of cells present in the well. All endpoint reads were performed using the PheraSTAR Plus (BMG Labtech). Data is expressed as % viable cells and % dead cells against controls (mean±SEM of duplicate curves).

The compound `Nc1nc(C(=O)Nc2cc(-c3cnc(CN4CCNCC4)s3)ccc2Cl)co1` [Example 90, 2-Amino-N-{2-chloro-5-[2-(piperazin-1-ylmethyl)-1,3-thiazol-5-yl]phenyl}-1,3-oxazole-4-carboxamide] had an IC50 against WT full length PAICS of 10 to 25 nM. The compound further registered an EC50 in test [1] of 100 to 250 nM.

In turn, `Nc1nc(C(=O)Nc2cc(-c3ccc(N4CCNCC4)cc3)ccc2Cl)co1` [Example 39, 2-Amino-N-[4-chloro-4′-(piperazin-1-yl)biphenyl-3-yl]-1,3-oxazole-4-carboxamide] gave an IC50 on WT full length PAICS of more than 100 nM. The EC50 in test [1] lay within 250 to 500 nM.

As for `Nc1nc(C(=O)Nc2cc(-c3ccc(CN4CCNCC4)cc3)ccc2Cl)co1` [Example 38, 2-Amino-N-[4-chloro-4′-(piperazin-1-ylmethyl)biphenyl-3-yl]-1,3-oxazole-4-carboxamide], the IC50 against WT full length PAICS fell in the range of 10 to 25 nM. Besides, the EC50 in test [1] lay in the range of 250 to 500 nM.

In turn, `CN(C)CCOc1ccc(-c2ccc(Cl)c(NC(=O)c3coc(N)n3)c2)cn1` [Example 73, 2-Amino-N-(2-chloro-5-(6-(2-(dimethylamino)ethoxy)pyridin-3-yl)phenyl)oxazole-4-carboxamide] returned an IC50 against WT full length PAICS of 25 to 100 nM. This compound gave an EC50 in test [1] of 250 to 500 nM.

Compound `CN(C)CCOc1ccc(-c2ccc(Cl)c(NC(=O)c3coc(N)n3)c2)cc1` [Example 75, 2-Amino-N-{4-chloro-4′-[2-(dimethylamino)ethoxy]biphenyl-3-yl}-1,3-oxazole-4-carboxamide] showed an IC50 against WT full length PAICS of 25 to 100 nM. Also, the EC50 in test [1] lay within 100 to 250 nM.

Consider `CN(C)CCCOc1ccc(-c2ccc(Cl)c(NC(=O)c3coc(N)n3)c2)cn1` [Example 72, 2-Amino-N-(2-chloro-5-{6-[3-(dimethylamino)propoxy]pyridin-3-yl}phenyl)-1,3-oxazole-4-carboxamide], for which, on WT full length PAICS, the IC50 fell in the range of 10 to 25 nM. For the same compound, the EC50 in test [1] fell in the range of 100 to 250 nM.

On WT full length PAICS, `CN1CCN(CCCn2cc(-c3ccc(Cl)c(NC(=O)c4coc(N)n4)c3)cn2)CC1` [Example 52, 2-Amino-N-(2-chloro-5-(1-(3-(4-methylpiperazin-1-yl)propyl)-1H-pyrazol-4-yl)phenyl)oxazole-4-carboxamide] came in with an IC50 of 10 to 25 nM. This compound showed an EC50 in test [1] of 100 to 250 nM.

Compound `CN(C)CCNC(=O)Cn1cc(-c2ccc(Cl)c(NC(=O)c3coc(N)n3)c2)cn1` [Example 58, 2-Amino-N-{2-chloro-5-[1-(2-{[2-(dimethylamino)ethyl]amino}-2-oxoethyl)-1H-pyrazol-4-yl]phenyl}-1,3-oxazole-4-carboxamide] registered an IC50 against WT full length PAICS of 25 to 100 nM. The same compound had an EC50 in test [1] of 250 to 500 nM.

Turning to `CN(C)CC(=O)N1CCC(n2cc(-c3ccc(Cl)c(NC(=O)c4coc(N)n4)c3)cn2)CC1` [Example 62, 2-Amino-N-(2-chloro-5-{1-[1-(N,N-dimethylglycyl)piperidin-4-yl]-1H-pyrazol-4-yl}phenyl)-1,3-oxazole-4-carboxamide], on WT full length PAICS, the IC50 was more than 100 nM. The EC50 in test [1] was in the range of 100 to 250 nM.

`CN1CCN(Cc2ccc(-c3ccc(Cl)c(NC(=O)c4coc(N)n4)c3)cn2)CC1` [Example 83, 2-Amino-N-(2-chloro-5-{6-[(4-methylpiperazin-1-yl)methyl]pyridin-3-yl}phenyl)-1,3-oxazole-4-carboxamide] gave a 50% inhibitory concentration (IC50) on WT full length PAICS of 25 to 100 nM. Besides, in test [1], the EC50 lay in the range of 250 to 500 nM.

The compound `CSc1ccc(-c2ccc(OCCCN(C)C)nc2)cc1NC(=O)c1coc(N)n1` [Example 92, 2-Amino-N-[5-{6-[3-(dimethylamino)propoxy]pyridin-3-yl}-2-(methylsulfanyl)phenyl]-1,3-oxazole-4-carboxamide] yielded an IC50 on WT full length PAICS of 25 to 100 nM. In test [1], the EC50 lay in the range of 250 to 500 nM.

The compound `Nc1nc(C(=O)Nc2cc(-c3cnn(C4CCNCC4)c3)ccc2Cl)co1` [Example 40] displayed an IC50 at WT full length PAICS of 25 to 100 nM. The EC50 in test [1] is 250 to 500 nM.

`Nc1nc(C(=O)Nc2cc(-c3cnn(C4CCN(CCO)CC4)c3)ccc2Cl)co1` [Example 66, 2-Amino-N-(2-chloro-5-{1-[1-(2-hydroxyethyl)piperidin-4-yl]-1H-pyrazol-4-yl}phenyl)-1,3-oxazole-4-carboxamide] had an IC50 against WT full length PAICS of more than 100 nM. This compound registered an EC50 in test [1] of 100 to 250 nM.

Compound `Nc1nc(C(=O)Nc2cc(-c3ccc(CN4CC5CNCC5C4)nc3)ccc2Cl)co1` (centres unmarked) [Example 79, 2-Amino-N-{2-chloro-5-[6-(hexahydropyrrolo[3,4-c]pyrrol-2(1H)-ylmethyl)pyridin-3-yl]phenyl}-1,3-oxazole-4-carboxamide] displayed an IC50 against WT full length PAICS of 10 to 25 nM. For the same compound, the EC50 in test [1] lay within 250 to 500 nM.

On WT full length PAICS, `Nc1nc(C(=O)Nc2cc(-c3cnn(CCCN4CCNCC4)c3)ccc2Cl)co1` [Example 51, 2-Amino-N-(2-chloro-5-(1-(3-(piperazin-1-yl)propyl)-1H-pyrazol-4-yl)phenyl)oxazole-4-carboxamide] showed an IC50 of less than 10 nM. Further, in test [1], the EC50 lay within 100 to 250 nM.

In turn, `CNCCCn1cc(-c2ccc(Cl)c(NC(=O)c3coc(N)n3)c2)cn1` [Example 49, 2-Amino-N-(2-chloro-5-(1-(3-(methylamino)propyl)-1H-pyrazol-4-yl)phenyl)oxazole-4-carboxamide] displayed an IC50 against WT full length PAICS of less than 10 nM. The compound also displayed an EC50 in test [1] of less than 100 nM.

At WT full length PAICS, `CNCCCOc1ccc(-c2ccc(Cl)c(NC(=O)c3coc(N)n3)c2)cn1` [Example 70, 2-Amino-N-(2-chloro-5-(6-(3-(methylamino)propoxy)pyridin-3-yl)phenyl)oxazole-4-carboxamide] registered an IC50 of 10 to 25 nM. The EC50 in test [1] lay within 100 to 250 nM.

On to `CN1CCC(NCc2ccc(-c3ccc(Cl)c(NC(=O)c4coc(N)n4)c3)cn2)CC1` [Example 78, 2-Amino-N-[2-chloro-5-(6-{[(1-methylpiperidin-4-yl)amino]methyl}pyridin-3-yl)phenyl]-1,3-oxazole-4-carboxamide], for which, at WT full length PAICS, the IC50 is 10 to 25 nM. In addition, the EC50 in test [1] is 100 to 250 nM.

Consider `N#Cc1nn(C2CCNCC2)cc1-c1ccc(Cl)c(NC(=O)c2coc(N)n2)c1` [Example 53, 2-Amino-N-(2-chloro-5-(3-cyano-1-(piperidin-4-yl)-1H-pyrazol-4-yl)phenyl)oxazole-4-carboxamide], for which the IC50 against WT full length PAICS lay within 10 to 25 nM. Moreover, the EC50 in test [1] lay within 100 to 250 nM.
